Laboratory results: ChEMBL document CHEMBL2073810, “Mrp2 is essential for estradiol-17beta(beta-D-glucuronide)-induced cholestasis in rats” (Hepatology, 2000)

Experiments:
Assay type in all cases: functional, cell membranes, Membrane vesicle
Bile salt export pump [1] = molecular target: T1, Bile salt export pump (Rattus norvegicus, UniProt O70127); experiment: TP_TRANSPORTER: inhibition of Taurocholate uptake (Taurochorate: 100 uM, TLC: 10 uM) in membrane vesicles from Bsep-expressing Sf9 cells; conditions: sf9, 10 µM
T1 sequence (O70127 whole entry): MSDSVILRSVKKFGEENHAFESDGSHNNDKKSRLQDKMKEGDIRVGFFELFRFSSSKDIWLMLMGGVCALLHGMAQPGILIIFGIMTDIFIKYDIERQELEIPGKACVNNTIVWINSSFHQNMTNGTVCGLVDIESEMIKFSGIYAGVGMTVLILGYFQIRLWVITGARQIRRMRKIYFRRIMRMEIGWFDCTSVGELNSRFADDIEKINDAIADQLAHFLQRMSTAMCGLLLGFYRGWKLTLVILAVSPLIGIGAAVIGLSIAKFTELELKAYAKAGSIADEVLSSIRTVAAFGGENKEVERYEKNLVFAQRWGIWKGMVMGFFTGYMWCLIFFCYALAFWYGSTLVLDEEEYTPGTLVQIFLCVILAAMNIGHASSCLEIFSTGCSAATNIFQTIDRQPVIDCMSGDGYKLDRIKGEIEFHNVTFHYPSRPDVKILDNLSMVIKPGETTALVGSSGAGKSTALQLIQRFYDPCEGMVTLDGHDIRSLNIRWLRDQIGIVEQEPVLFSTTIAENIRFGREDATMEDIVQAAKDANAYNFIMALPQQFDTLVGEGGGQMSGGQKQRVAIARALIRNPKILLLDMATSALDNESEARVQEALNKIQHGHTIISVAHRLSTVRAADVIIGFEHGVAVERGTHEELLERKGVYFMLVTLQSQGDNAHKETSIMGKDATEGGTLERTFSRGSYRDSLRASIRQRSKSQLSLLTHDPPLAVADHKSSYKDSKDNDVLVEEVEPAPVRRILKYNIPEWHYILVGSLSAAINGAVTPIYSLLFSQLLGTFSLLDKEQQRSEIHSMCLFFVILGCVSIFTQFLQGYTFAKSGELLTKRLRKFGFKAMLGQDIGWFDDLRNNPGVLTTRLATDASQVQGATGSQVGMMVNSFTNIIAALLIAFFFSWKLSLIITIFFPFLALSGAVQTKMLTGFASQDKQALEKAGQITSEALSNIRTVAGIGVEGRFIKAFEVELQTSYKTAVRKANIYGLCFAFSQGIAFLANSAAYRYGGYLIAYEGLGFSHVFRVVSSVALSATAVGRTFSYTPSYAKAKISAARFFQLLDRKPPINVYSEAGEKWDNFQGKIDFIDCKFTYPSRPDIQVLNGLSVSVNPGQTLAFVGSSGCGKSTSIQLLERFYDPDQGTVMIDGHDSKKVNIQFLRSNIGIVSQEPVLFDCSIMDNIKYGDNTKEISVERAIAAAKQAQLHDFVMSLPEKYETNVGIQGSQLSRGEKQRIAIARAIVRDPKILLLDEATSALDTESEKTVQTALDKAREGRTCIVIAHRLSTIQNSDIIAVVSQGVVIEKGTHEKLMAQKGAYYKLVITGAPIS

Bile salt export pump [2] = molecular target: T1, Bile salt export pump; experiment: TP_TRANSPORTER: inhibition of Taurocholate uptake (Taurochorate: 1uM, Ethinyl estradiol: 25 uM) in membrane vesicles from Bsep-expressing Sf9 cells; conditions: sf9, 25 µM
Bile salt export pump [3] = molecular target: T1, Bile salt export pump; experiment: TP_TRANSPORTER: inhibition of Taurocholate uptake (Taurochorate: 1 uM, E217betaG: 50 uM) in membrane vesicles from Bsep-expressing Sf9 cells; conditions: sf9, 50 µM

In the case of `C[C@H](CCC(=O)NCCS(=O)(=O)O)[C@H]1CC[C@H]2[C@@H]3CC[C@@H]4C[C@H](O)CC[C@]4(C)[C@H]3CC[C@]12C` [TAUROLITHOCHOLIC ACID], the Activity (Bile salt export pump [1]) is reported as “inhibitor [+]”.

With `C#C[C@]1(O)CC[C@H]2[C@@H]3CCc4cc(O)ccc4[C@H]3CC[C@@]21C` [ETHINYL ESTRADIOL] the Activity (Bile salt export pump [2]) was “is not an inhibitor [-]”.

`C[C@]12CC[C@@H]3c4ccc(O)cc4CC[C@H]3[C@@H]1CC[C@@H]2O[C@@H]1O[C@H](C(=O)O)[C@@H](O)[C@H](O)[C@H]1O` [ESTRADIOL 17B GLUCURONIDE] was tested, and the Activity (Bile salt export pump [3]) was “is not an inhibitor [-]”.
